Laboratory results as given in PubChem BioAssay AID435019 (Southern Research Specialized Biocontainment Screening …, 2010).

Tested on: mammalian cell viability, cytotoxicity counter-screen
Assay: mammalian cell cytotoxicity, dose response, cytotoxicity control for M. tuberculosis inhibitor project (AID 435019)

SMILES	CC50
CN(C)c1ccnc2c[cH-]cc12.[Fe].c1ccc(-[c-]2[c-](-c3ccccc3)[c-](-c3ccccc3)[c-](-c3ccccc3)[c-]2-c2ccccc2)cc1 (configuration not stated)	11.8 µM
C[CH2][Hg][S]c1ccccc1C(=O)O	3.56 µM
